Measured values taken from patent US7067533B2, “Aminophenoxyacetamide derivatives and pharmaceutical composition containing thereof” (Daiichi Asubio Pharma Co., Ltd., priority 2000, dated 2006).

Assays:
[1] = system: primary cultures (neurons) from cerebral cortices of fetal Wistar rats; assay: Biological Test 1: neuroprotective effect against glutamate induced neuronal cell death (MTT); assay type: cell-based, rat; settings: Compound: 1 μM; glutamate 1 mM; control group = 100%
Procedure: Cultures were maintained at 37 C. in a 90% air/10% CO2 humidified incubator. Glutamate was added to the culture at day 4 to the final concentration of 1 mM. […] MTT was dissolved in phosphate buffered saline (PBS, pH 7.4) at 5 mg/ml and filtered to sterilize and remove a small amount of insoluble residue present in some batches of MTT, and added to the cultures at a final concentration of 0.5 mg/ml.
The test compounds (1 μM) was added 24 hrs prior to glutamate treatment and simultaneously with glutamate.
Survival rate of living cells (%) =[(test compound group—glutamic acid treated group)÷(control group—glutamic acid treated group)]×100

[2] = system: primary cultures (neurons) from cerebral cortices of fetal Wistar rats; assay: Biological Test 2: antagonism of the neuroprotective effect by MTA treatment (MTT); assay type: cell-based, rat; settings: 0.75 mM MTA added 30 minutes before test compound, glutamate
Procedure: This biological test is performed to determine whether the neuroprotective effect of the test compounds is due to the activation of receptors of physiological active substances or not, by using antagonistic test for neutralizing antibody and Inhibitor for FGF, NT-3, NT-4/5, BDNF, IGF-I/II, NGF, PDGF and estrogen, respectively.
Chem., 268, 4244 (1993)]. Therefore, the neuroprotective effect of the test compounds is inhibited by treatment of MTA, this effect is depended by the signal transfer effect through the phosphorylation of FGF receptor.
The inhibitors of the various kinds of receptor were dissolved in the optimum concentration, and MTA was dissolved in the concentration of 7.5 mM, just before the using. 30 minutes before the treatment of the test compounds, the optimum concentration of each inhibitors or 0.75 mM of MTA was added, and the neuroprotective effect of the test compounds was determined by mean of MTT method.

[3] = system: cerebral edema (water content of cerebral hemisphere), Wistar rats; assay: Biological Test 5: cerebral edema suppressing effect; assay type: in vivo; settings: iv, 144 h, rat, post-TBI day 6, read-out: Cerebral edema suppressing rate (%); for inhibition in vivo at 3 mg/kg: 3 mg/kg intravenously just after the operation; for inhibition in vivo at 1 mg/kg: 1 mg/kg intravenously just after the operation
Procedure: Adult male Wistar rats weighing 210–230 g were used in the present study and housed in an artificially controlled environment with 12-hour light/dark cycle. Animals were anesthetized with pentobarbital sodium (50 mg/kg of body weight, i.p., Nembutal, Dinabbott, Japan) and placed in a stereotaxic apparatus. The skull was exposed and a hole was made on the parietal bone; 1.5 mm posterior and 0.8 mm lateral to the bregma. All procedures were performed under a surgery microscope to avoid excess irritation to the meninges and the underlying brain. A brass screw with a blunt tip (1.0 mm in diameter and 3.0 mm in length, Biomedica, Japan) was inset in the hole. The screw tip protruding intracranially was approximately 2.5 mm, which stuck into the parietal part of the right cerebrum through the meninges. In sham-operated rats, scalp was closed without attaching a screw to the hole. After surgery, all rats were kept in their original dens until sacrifice. Rats were allowed to feed chow and water ad libitum.
Under anesthesia the rat cerebral hemispheres of the target were processed for water content on post-TBI day 6 (n=6). The cerebral hemispheres dissected out were weighed, dried for 24 hours at 110 degree (Celsius) and then weighed again. The subtracted amount of the wet and dry weights was regarded as tissue water of the target, and utilized for the analysis of the cerebral edema.
The water content was calculated by using the following formula:
Water content (%) =[(wet weight of hemisphere—dry weight of hemisphere)/wet weight of hemisphere]×100
The test compounds were intravenously administered just after the operation via tail vein of the rats.

[4] = system: primary cultures (neurons) from cerebral cortices of fetal Wistar rats; assay: Biological Test 4: neuroprotective inhibiting effect by calbindin antisense oligonucleotide (MTT); assay type: cell-based, rat; settings: 300 μM glutamic acid

Compound	Survival Rate (%) (Compound: 1 μl) [1]	Survival Rate (%) (Compound: 1 μl & MTA treatment) [2]	other results
Cc1c(C)c(OCC(=O)N(C)C2CCN(C[C@@H]3C[C@H]3c3ccccc3)CC2)c(C)c(C)c1N (relative stereo) [Compound 13, 2-(4-Amino-2,3,5,6-tetramethylphenoxy)-N-methyl-N-[1-(trans-2-phenyl-1-cyclopropylmethyl)-4-piperidinyl]acetamide]	65	13	inhibition in vivo at 3 mg/kg [3]: 13.1%
Cc1c(C)c(OCC(=O)N(C)C2CCN(CC(=O)Nc3ccccc3)CC2)c(C)c(C)c1N [Compound 7, 2-(4-Amino-2,3,5,6-tetramethylphenoxy)-N-[1-(2-anilino-2-oxoethyl)-4-piperidinyl]-N-methylacetamide]	76	32	–
CCCCN1CCC(N(C)C(=O)COc2c(C)c(C)c(N)c(C)c2C)CC1 [Compound 9, 2-(4-Amino-2,3,5,6-tetramethylphenoxy)-N-(1-butyl-4-piperidinyl)-N-methylacetamide]	104	5	–
Cc1c(C)c(OCC(=O)N(C)C2CCN(CC(=O)c3ccccc3)CC2)c(C)c(C)c1N [Compound 10, 2-(4-Amino-2,3,5,6-tetramethylphenoxy)-N-[1-(2-phenyl-2-oxoethyl)-4-piperidinyl]-N-methylacetamide]	86	31	–
Cc1c(C)c(OCC(=O)N(C)C2CCN(CC(O)c3ccccc3)CC2)c(C)c(C)c1N (centres unmarked) [Compound 11, 2-(4-Amino-2,3,5,6-tetramethylphenoxy)-N-[1-(2-hydroxy-2-phenylethyl)-4-piperidinyl]-N-methylacetamide]	74	56	–
Cc1c(C)c(OCC(=O)N(C)C2CCN(CCOc3ccccc3)CC2)c(C)c(C)c1N [Compound 14, 2-(4-Amino-2,3,5,6-tetramethylphenoxy)-N-methyl-N-[1-(2-phenoxyethyl)-4-piperidinyl]acetamide]	–	–	inhibition in vivo at 1 mg/kg [3]: 18.7%
Cc1c(C)c(OCC(=O)N(C)C2CCN(CC(=O)N(C)c3ccccc3)CC2)c(C)c(C)c1N [Compound 15, 2-(4-Amino-2,3,5,6-tetramethylphenoxy)-N-methyl-N-{1-[2-(N-methylanilino)-2-oxoethyl]-4-piperidinyl}acetamide]	–	–	inhibition in vivo at 1 mg/kg [3]: 14.7%
Cc1c(C)c(OCC(=O)N(C)C2CCN(CCN3CCOCC3)CC2)c(C)c(C)c1N [Compound 16, 2-(4-Amino-2,3,5,6-tetramethylphenoxy)-N-methyl-N-{1-[2-(4-morpholinyl)ethyl]-4-piperidinyl}acetamide]	101	33	–
Cc1c(C)c(OCC(=O)N(C)C2CCN(CCOCC(O)c3ccccc3)CC2)c(C)c(C)c1N (centres unmarked) [Compound 17, 2-(4-Amino-2,3,5,6-tetramethylphenoxy)-N-{1-[2-(2-hydroxy-2-phenylethoxy)ethyl]-4-piperidinyl}-N-methylacetamide]	85	55	–
Cc1c(C)c(OCC(=O)N(C)C2CCN(Cc3ccc(C(N)=O)cc3)CC2)c(C)c(C)c1N [Compound 19, 4-({4-[[(4-Amino-2,3,5,6-tetramethylphenoxy)acetyl]-(methyl)amino]-1-piperidinyl}methyl)bezamide]	96	28	–
Cc1c(C)c(OCC(=O)N(C)C2CCN(C(C)Cc3ccccc3)CC2)c(C)c(C)c1N (centres unmarked) [Compound 22, 2-(4-Amino-2,3,5,6-tetramethylphenoxy)-N-methyl-N-[1-(1-methyl-2-phenylethyl)-4-piperidinyl]acetamide]	79	32	–
Cc1c(C)c(OC(C)C(=O)N(C)C2CCN(CC3CC3c3ccccc3)CC2)c(C)c(C)c1N (stereo not drawn) [Compound 26, 2-(4-Amino-2,3,5,6-tetramethylphenoxy)-N-methyl-N-[1-(trans-2-phenyl-1-cyclopropylmethyl)-4-piperidniyl]propanamide]	–	–	inhibition in vivo at 3 mg/kg [3]: 11.9%
Cc1c(C)c(OC(C)C(=O)N(C)C2CCN(CC(=O)N(C)c3ccccc3)CC2)c(C)c(C)c1N (centres unmarked) [Compound 27, 2-(4-Amino-2,3,5,6-tetramethylphenoxy)-N-methyl-N-{1-[2-(N-methylanilino)-2-oxoethyl]-4-piperidinyl}propanamide]	–	–	inhibition in vivo at 3 mg/kg [3]: 11.8%
Cc1c(C)c(OC(C)(C)C(=O)N(C)C2CCN(CCc3ccccc3)CC2)c(C)c(C)c1N [Compound 28, 2-(4-Amino-2,3,5,6-tetramethylphenoxy)-N,2-dimethyl-N-[1-(2-phenylethyl)-4-piperidinyl]propanamide]	103	46	–
Cc1c(C)c(C)c(OCC(=O)N(C)C2CCN(CCc3ccccc3)CC2)c(N)c1C [Compound 29, 2-(2-Amino-3,4,5,6-tetramethylphenoxy)-N-methyl-N-[1-(2-phenylethyl)-4-piperidinyl]acetamide]	–	–	inhibition in vivo at 1 mg/kg [3]: 13.8%
Cc1c(C)c(N)c(C)c(OCC(=O)N(C)C2CCN(C(=O)c3ccccc3)CC2)c1C [Compound 33, 2-(3-Amino-2,4,5,6-tetramethylphenoxy)N-(1-benzoyl-4-piperidinyl)-N-methylacetamide]	120	46	–
Cc1c(C)c(N)c(C)c(OCC(=O)N(C)C2CCN(Cc3ccc(C#N)cc3)CC2)c1C [Compound 34, 2-(3-Amino-2,4,5,6-tetramethylphenoxy)-N-[1-(4-cyano-benzyl)-4-piperidinyl]-N-methylacetamide]	74	21	–
Cc1c(C)c(NCC(=O)N(C)C2CCN(c3nc4ccccc4s3)CC2)c(C)c(C)c1N [Compound 37, 2-(4-Amino-2,3,5,6-tetramethylanilino)-N-[1-(1,3-benzothiazol-2-yl)-4-piperidinyl]-N-methylacetamide]	95	20	–
Cc1c(C)c(NCC(=O)N(C)C2CCN(c3ccc(F)cc3)CC2)c(C)c(C)c1N [Compound 38, 2-(4-Amino-2,3,5,6-tetramethylanilino)-N-[1-(4-fluorophenyl)-4-piperidinyl]-N-methylacetamide]	124	19	Survival Rate (%) [antisense (+): 5 μM] ([4]; 0.1 μM): 28%; Survival Rate (%) [antisense (−)] ([4]; 0.1 μM): 100%; Survival Rate (%) [antisense (+): 5 μM] ([4]; 1 μM): 33%; Survival Rate (%) [antisense (−)] ([4]; 1 μM): 106%
Cc1cc(C)c(NCC(=O)N(C)C2CCN(c3ccc(F)cc3)CC2)c(C)c1N [Compound 39, 2-(3-Amino-2,4,6-trimethylanilino)-N-[1-(4-fluoro-phenyl)-4-piperidinyl]-N-methylacetamide]	94	28	–
BFGF: Reference test substance in Table 10 (1 ng, 10 ng); not defined further; FGF is a physiologically active substance inducing CalbindinD-28k	–	–	Survival Rate (%) [antisense (+): 5 μM] ([4]; 1 ng): 8%; Survival Rate (%) [antisense (−)] ([4]; 1 ng): 71%; Survival Rate (%) [antisense (+): 5 μM] ([4]; 10 ng): 35%; Survival Rate (%) [antisense (−)] ([4]; 10 ng): 101%
